How the values were obtained:
[1] = target: T1, human Siglec-2/CD22 protein (Homo sapiens, UniProt P20273); experiment: SPR binding affinity to human CD22; details: steady-state analysis
T1 construct: purchased Acro Biosystems SI2-H82E3
T1 sequence (P20273 20-847): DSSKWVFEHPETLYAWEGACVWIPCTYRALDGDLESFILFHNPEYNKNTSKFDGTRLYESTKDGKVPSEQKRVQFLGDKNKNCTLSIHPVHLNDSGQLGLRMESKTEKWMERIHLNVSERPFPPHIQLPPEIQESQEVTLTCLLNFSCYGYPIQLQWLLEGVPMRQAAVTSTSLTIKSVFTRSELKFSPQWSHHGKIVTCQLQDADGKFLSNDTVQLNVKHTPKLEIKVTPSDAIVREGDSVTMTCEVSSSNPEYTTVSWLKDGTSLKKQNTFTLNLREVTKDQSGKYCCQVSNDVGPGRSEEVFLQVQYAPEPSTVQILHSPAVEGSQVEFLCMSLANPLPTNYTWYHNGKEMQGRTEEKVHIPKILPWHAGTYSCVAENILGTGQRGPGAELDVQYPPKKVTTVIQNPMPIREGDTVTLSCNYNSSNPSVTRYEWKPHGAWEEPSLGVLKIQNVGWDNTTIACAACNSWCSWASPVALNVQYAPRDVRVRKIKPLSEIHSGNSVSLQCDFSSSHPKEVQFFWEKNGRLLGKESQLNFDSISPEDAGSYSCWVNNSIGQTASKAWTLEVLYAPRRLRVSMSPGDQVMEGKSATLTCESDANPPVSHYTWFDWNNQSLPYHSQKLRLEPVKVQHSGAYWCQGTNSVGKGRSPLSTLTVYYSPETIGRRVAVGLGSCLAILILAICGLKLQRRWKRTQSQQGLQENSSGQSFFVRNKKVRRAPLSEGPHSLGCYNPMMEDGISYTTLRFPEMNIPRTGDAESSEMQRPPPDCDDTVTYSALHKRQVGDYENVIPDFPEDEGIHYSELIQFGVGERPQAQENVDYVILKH
In short: (§1)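 Native sialic acid residues are removed from the receptor enzymatically (4 hours at 37° C.) prior to streptavidin capture of the biotinylated protein. Ligand compounds then flow over in HEPES-buffered saline, pH 7.5, containing 0.05% Tween-20 and 1% DMSO, and binding is evaluated at steady state.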

[2] = target: T2, mouse Siglec-2-Fc-Avi (CD22) (Mus musculus, UniProt P35329); experiment: SPR binding affinity to mouse CD22; details: steady-state analysis
T2 construct: made in house
T2 sequence (P35329 22-708 limits assumed): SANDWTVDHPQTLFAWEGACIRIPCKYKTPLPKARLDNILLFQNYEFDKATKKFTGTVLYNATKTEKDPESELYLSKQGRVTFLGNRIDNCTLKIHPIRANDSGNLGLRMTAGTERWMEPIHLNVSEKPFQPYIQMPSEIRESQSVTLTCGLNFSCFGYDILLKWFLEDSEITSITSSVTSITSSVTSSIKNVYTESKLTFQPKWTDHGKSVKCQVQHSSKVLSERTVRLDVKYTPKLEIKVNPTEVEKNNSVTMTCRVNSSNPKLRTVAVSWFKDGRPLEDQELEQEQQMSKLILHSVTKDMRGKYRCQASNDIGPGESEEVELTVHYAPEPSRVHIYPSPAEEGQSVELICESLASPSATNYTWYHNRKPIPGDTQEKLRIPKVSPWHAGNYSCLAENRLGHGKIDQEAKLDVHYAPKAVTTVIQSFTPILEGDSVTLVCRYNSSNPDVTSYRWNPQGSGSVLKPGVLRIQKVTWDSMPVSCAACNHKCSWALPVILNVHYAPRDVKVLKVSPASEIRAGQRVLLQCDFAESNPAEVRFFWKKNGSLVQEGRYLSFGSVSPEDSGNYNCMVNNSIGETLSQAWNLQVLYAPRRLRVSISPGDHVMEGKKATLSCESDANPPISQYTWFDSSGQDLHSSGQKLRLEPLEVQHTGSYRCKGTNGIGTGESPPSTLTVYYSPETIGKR
In short: as §1

cynomolgus Siglec-2/CD22 = cynomolgus Siglec-2/CD22 (Macaca fascicularis, UniProt A0A2K5WCZ6); experiment: biochemical; type: binding; details: SPR, steady-state analysis; read-out: Affinity cyno CD22
In short: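 Compound binding measured by steady-state SPR analysis, 120 s dissociation, in HEPES-NaCl-Tween buffer pH 7.5 containing 1% DMSO, DMSO solvent-corrected. Surface: cyno CD22, sialic acids first stripped by SialoExo for 4 h at 37° C., then amine-coupled onto CM5.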

Chain of cynomolgus Siglec-2/CD22 (A0A2K5WCZ6 entry or part of it): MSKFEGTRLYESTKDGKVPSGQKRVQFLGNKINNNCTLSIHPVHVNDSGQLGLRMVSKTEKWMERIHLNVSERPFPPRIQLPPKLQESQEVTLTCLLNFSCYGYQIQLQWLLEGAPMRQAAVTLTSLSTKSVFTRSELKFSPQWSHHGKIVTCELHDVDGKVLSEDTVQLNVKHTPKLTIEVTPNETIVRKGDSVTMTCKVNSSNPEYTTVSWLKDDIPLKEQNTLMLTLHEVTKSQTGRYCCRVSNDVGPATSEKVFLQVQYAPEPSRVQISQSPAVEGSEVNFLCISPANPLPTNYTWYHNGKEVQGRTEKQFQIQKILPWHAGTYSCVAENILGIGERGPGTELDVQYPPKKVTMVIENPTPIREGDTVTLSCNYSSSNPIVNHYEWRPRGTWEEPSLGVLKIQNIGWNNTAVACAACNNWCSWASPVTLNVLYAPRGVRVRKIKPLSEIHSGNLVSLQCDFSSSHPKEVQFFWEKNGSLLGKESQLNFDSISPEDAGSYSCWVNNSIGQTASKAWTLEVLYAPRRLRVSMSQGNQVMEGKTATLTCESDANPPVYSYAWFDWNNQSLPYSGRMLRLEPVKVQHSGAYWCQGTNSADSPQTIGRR

Row | SMILES | Kd [1] | Kd [2] | Kd (cynomolgus Siglec-2/CD22)
1 | C#CCCCCCCO[C@]1(C(=O)O)C[C@H](O)[C@@H](NC(=O)CO)[C@H]([C@H](O)[C@H](O)CNC(=O)c2ccc(Cl)cc2)O1 [Cpd. 267, (2R,4S,5R,6R)-6-((1R,2R)-3-(4-chlorobenzamido)-1,2-dihydroxypropyl)-4-hydroxy-5-(2-hydroxyacetamido)-2-(oct-7-yn-1-yloxy) tetrahydro-2H-pyran-2-carboxylic acid] | < 1000 nM | 1000 to 10000 nM | < 1000 nM
2 | CC(=O)NCCOCCOCCOCCOCCNC(=O)CCCCCCO[C@]1(C(=O)O)C[C@H](O)[C@@H](NC(=O)CO)[C@H]([C@H](O)[C@H](O)CNC(=O)Cc2ccc(-c3nnn[nH]3)cc2)O1 [Cpd. 266, (2R,4S,5R,6R)-6-((1R,2R)-3-(2-(4-(1H-tetrazol-5-yl)phenyl)acetamido)-1,2-dihydroxypropyl)-2-((2,19-dioxo-6,9,12,15-tetraoxa-3,18-diazapentacosan-25-yl)oxy)-4-hydroxy-5-(2-hydroxyacetamido) tetrahydro-2H-pyran-2-carboxylic acid] | < 1000 nM | 1000 to 10000 nM | < 1000 nM
3 | C#CCOc1ccc(CO[C@]2(C(=O)O)C[C@H](O)[C@@H](NC(=O)CO)[C@H]([C@H](O)[C@H](O)CNC(=O)Cc3cccc(F)c3)O2)cc1 [Compound 167, (2R,4S,5R,6R)-6-((1R,2R)-3-(2-(3-fluorophenyl)acetamido)-1,2-dihydroxypropyl)-4-hydroxy-5-(2-hydroxyacetamido)-2-((4-(prop-2-yn-1-yloxy)benzyl)oxy)tetrahydro-2H-pyran-2-carboxylic acid] | < 1000 nM | 1000 to 10000 nM | 1000 to 10000 nM
4 | C#CCOCCOCCO[C@]1(C(=O)NS(C)(=O)=O)C[C@H](O)[C@@H](NC(=O)CO)[C@H]([C@H](O)[C@H](O)CNC(=O)Cc2ccc(-c3ccc(O)cc3)cc2)O1 [Compound 65, (2R,4S,5R,6R)-6-((1R,2R)-1,2-dihydroxy-3-(2-(4′-hydroxy-[1,1′-biphenyl]-4-yl)acetamido)propyl)-4-hydroxy-5-(2-hydroxyacetamido)-N-(methylsulfonyl)-2-(2-(2-(prop-2-yn-1-yloxy)ethoxy)ethoxy)tetrahydro-2H-pyran-2-carboxamide] | > 10000 nM | > 10000 nM | > 10000 nM
5 | CC(=O)NCCOCCOCCOCCOCc1cn(CCOCCOCCO[C@]2(C(=O)O)C[C@H](O)[C@@H](NC(=O)CO)[C@H]([C@H](O)[C@H](O)CNC(=O)Cc3ccc(Cl)cc3)O2)nn1 [Cpd. 260, (2R,4S,5R,6R)-6-((1R,2R)-3-(2-(4-chlorophenyl)acetamido)-1,2-dihydroxypropyl)-4-hydroxy-5-(2-hydroxyacetamido)-2-(2-(2-(2-(4-(15-oxo-2,5,8,11-tetraoxa-14-azahexadecyl)-1H-1,2,3-triazol-1-yl)ethoxy)ethoxy)ethoxy)tetrahydro-2H-pyran-2-carboxylic acid] | 1000 to 10000 nM | 1000 to 10000 nM | 1000 to 10000 nM
6 | C#CCCOc1ccc(CO[C@]2(C(=O)O)C[C@H](O)[C@@H](NC(=O)CO)[C@H]([C@H](O)[C@H](O)CNC(=O)C(C)(O)c3ccccc3)O2)cc1 (stereo partly drawn) [Compound 169, (2R,4S,5R,6R)-2-((4-(but-3-yn-1-yloxy)benzyl)oxy)-6-((1R,2R)-1,2-dihydroxy-3-(2-hydroxy-2-phenylpropanamido)propyl)-4-hydroxy-5-(2-hydroxyacetamido)tetrahydro-2H-pyran-2-carboxylic acid] | 1000 to 10000 nM | > 10000 nM | 1000 to 10000 nM
7 | C#CCCOc1ccc(CO[C@]2(C(=O)O)C[C@H](O)[C@@H](NC(=O)CO)[C@H]([C@H](O)[C@H](O)CNC(=O)Cc3cccc(-c4cccc(O)c4)c3)O2)cc1 [Compound 45, (2R,4S,5R,6R)-2-((4-(but-3-yn-1-yloxy)benzyl)oxy)-6-((1R,2R)-1,2-dihydroxy-3-(2-(3′-hydroxy-[1,1′-biphenyl]-3-yl)acetamido)propyl)-4-hydroxy-5-(2-hydroxyacetamido)tetrahydro-2H-pyran-2-carboxylic acid] | < 1000 nM | 1000 to 10000 nM | 1000 to 10000 nM
8 | C#CCCOc1ccc(CO[C@]2(C(=O)O)C[C@H](O)[C@@H](NC(=O)CO)[C@H]([C@H](O)[C@H](O)CNC(=O)Cc3cccc(-c4ccc(O)cc4)c3)O2)cc1 [Compound 44, (2R,4S,5R,6R)-2-((4-(but-3-yn-1-yloxy)benzyl)oxy)-6-((1R,2R)-1,2-dihydroxy-3-(2-(4′-hydroxy-[1,1′-biphenyl]-3-yl)acetamido)propyl)-4-hydroxy-5-(2-hydroxyacetamido)tetrahydro-2H-pyran-2-carboxylic acid] | < 1000 nM | 1000 to 10000 nM | 1000 to 10000 nM

Continued, values first:

Row | Kd [1] | Kd [2] | Kd (cynomolgus Siglec-2/CD22) | SMILES
9 | < 1000 nM | 1000 to 10000 nM | 1000 to 10000 nM | C#CCOCCOCCO[C@]1(C(=O)O)C[C@H](O)[C@@H](NC(=O)CO)[C@H]([C@H](O)[C@H](O)CNC(=O)Cc2ccc(-c3cccc(O)c3)cc2)O1 [Compound 78, (2R,4S,5R,6R)-6-((1R,2R)-1,2-dihydroxy-3-(2-(3′-hydroxy-[1,1′-biphenyl]-4-yl)acetamido)propyl)-4-hydroxy-5-(2-hydroxyacetamido)-2-(2-(2-(prop-2-yn-1-yloxy)ethoxy)ethoxy)tetrahydro-2H-pyran-2-carboxylic acid]
10 | < 1000 nM | < 1000 nM | < 1000 nM | C#CCOCCOCCO[C@]1(C(=O)O)C[C@H](O)[C@@H](NC(=O)CO)[C@H]([C@H](O)[C@H](O)CNC(=O)Cc2ccc(-c3ccc4[nH]ccc4c3)cc2)O1 [Compound 4, (2R,4S,5R,6R)-6-((1R,2R)-3-(2-(4-(1H-indol-5-yl)phenyl)acetamido)-1,2-dihydroxypropyl)-4-hydroxy-5-(2-hydroxyacetamido)-2-(2-(2-(prop-2-yn-1-yloxy)ethoxy)ethoxy)tetrahydro-2H-pyran-2-carboxylic acid]
11 | > 10000 nM | 1000 to 10000 nM | < 1000 nM | C#CCOCCOCCO[C@]1(C(=O)O)C[C@H](O)[C@@H](NC(=O)CO)[C@H]([C@H](O)[C@H](O)CNC(=O)c2ccccc2)O1 [Compound 202, (2R,4S,5R,6R)-6-((1R,2R)-3-benzamido-1,2-dihydroxypropyl)-4-hydroxy-5-(2-hydroxyacetamido)-2-(2-(2-(prop-2-yn-1-yloxy)ethoxy)ethoxy)tetrahydro-2H-pyran-2-carboxylic acid]
12 | 1000 to 10000 nM | > 10000 nM | > 10000 nM | C#CCOCCOCCO[C@]1(C(=O)O)C[C@H](O)[C@@H](NC(=O)CO)[C@H]([C@H](O)[C@H](O)CNC(=O)c2cccc(O)c2)O1 [Compound 29, (2R,4S,5R,6R)-6-((1R,2R)-1,2-dihydroxy-3-(3-hydroxybenzamido)propyl)-4-hydroxy-5-(2-hydroxyacetamido)-2-(2-(2-(prop-2-yn-1-yloxy)ethoxy)ethoxy)tetrahydro-2H-pyran-2-carboxylic acid]
13 | 1000 to 10000 nM | 1000 to 10000 nM | < 1000 nM | C#CCOCCCCCCO[C@]1(C(=O)O)C[C@H](O)[C@@H](NC(=O)CO)[C@H]([C@H](O)[C@H](O)CNC(=O)Cc2cccc(O)c2)O1 [Compound 144, (2R,4S,5R,6R)-6-((1R,2R)-1,2-dihydroxy-3-(2-(3-hydroxyphenyl)acetamido)propyl)-4-hydroxy-5-(2-hydroxyacetamido)-2-((6-(prop-2-yn-1-yloxy)hexyl)oxy)tetrahydro-2H-pyran-2-carboxylic acid]

Reference: patent US20250064941A1, “SIGLEC LIGANDS, CONJUGATES, AND METHODS OF USE THEREOF” (Osprey Biopharmaceuticals, Inc., priority 2023, published 2025)
